Laboratory results from patent US5990160A, “Use of tropolone derivatives as inhibitors of the enzyme inositol monophosphatase” (Gruppo Lepetit, SpA, priority 1995, dated 1999).
Entries after “also recorded” stand apart in the source; their conditions may differ.

What was measured:
[1] = molecular target: T1, inositol monophosphatase (IMPase) (Bos taurus, UniProt P20456); assay: Inhibition of inositol monophosphatase (IMPase) enzyme activity, liberated phosphate by molybdate coloration; type: biochemical, animal; details: 4 mM 2-glycerolphosphate, 5 μg/ml IMPase, 50 mM Tris-HCl pH 7.5, 2 mM magnesium chloride, 0.1 mM EGTA, 30 minutes; read-out: IC50 (molar amount of inhibitor required to inhibit the enzyme activity by 50%)
T1 sequence (P20456 1-277): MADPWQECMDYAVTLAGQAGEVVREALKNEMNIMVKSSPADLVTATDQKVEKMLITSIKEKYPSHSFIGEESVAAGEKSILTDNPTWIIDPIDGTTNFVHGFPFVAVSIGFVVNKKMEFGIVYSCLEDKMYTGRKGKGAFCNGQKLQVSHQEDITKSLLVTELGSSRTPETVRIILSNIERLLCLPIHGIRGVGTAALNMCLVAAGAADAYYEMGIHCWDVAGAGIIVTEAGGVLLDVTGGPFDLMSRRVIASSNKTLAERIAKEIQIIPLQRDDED
Excerpt: For determining the activity of the compounds of formula I, IMPase with a purity higher than 90% as judged by SDS-PAGE (sodium dodecyl sulphate polyacrylamide gel electrophoresis) is purified as described in P. D. Pelton and A. J. Ganzhorn, Journal Biolog. Chem., 267, 1992, pp. 5916-5920. The enzyme can be purified from animal brain or from recombinant E. coli strains expressing animal IMPase. Although crude enzyme preparations can also be used, it is preferable to use purified enzyme. The purified enzyme routinely has a specific activity of 25 μmol of Pi/min/mg of protein as determined in a standard assay (P. V. Attwood et al., Biochem. Jour., 1988, 253, pp. 387-394) with 4 mM 2-glycerolphosphate as substrate.
The enzyme activity may be determined according to A. J. Ganzhorn and M. C. Chanal, Biochem., 1990, 29; the reaction mixture contains 50 mM Tris-HCl, pH 7.5, 2 mM magnesium chloride and 0.1 mM EGTA. Then, 5 μg/ml of enzyme IMPase and 4 mM of 2-glycerolphosphate substrate are added to the reaction mixture; alternatively, it is also possible to add the substrate directly into the reaction mixture, before adding the enzyme.
The reaction is considered terminated after 30 minutes from the addition of the substrate or the enzyme (depending on which one is added later); the liberated phosphate is determined by molybdate coloration (P. V. Attwood et al., Biochem. Jour., 1988, 253, pp. 387-394) at 350 nm with a Shimadzu spectrophotometer UV 2100.
The enzyme reaction is performed either in the absence or in the presence of various concentrations of the compounds of formula I, to determine the molar amount of inhibitor required to inhibit the enzyme activity by 50% (IC50).

inositol monophosphatase = details: cited from earlier work
[2] = cited from earlier work
bipolar disorder / mania = details: cited from earlier work

IC50 [1]	Molecule	inhibition of inositol monophosphatase activity (inositol monophosphatase)	structural lesions in kidney ([2]; after chronic lithium treatment, especially in patients who have experienced lithium toxicity)	adverse effects common to lithium therapy ([2]; lithium therapy)	occurrence of polyuria-polydipsia syndrome ([2]; lithium treatment)	time it takes to exert anti-manic effect (bipolar disorder / mania; acute bipolar disorder)	anti-manic and anti-depressive therapeutic effect (bipolar disorder / mania; preferably employed as lithium carbonate)
~4 µM	O=C1OC(=O)c2c1cc(O)c(O)c(O)c2=O [puberulonic acid, 3,4,6-trihydroxy-5-oxo-1,3,6-cycloheptatriene-1,7-dicarboxylic acid anhydride]	–	–	–	–	–	–
~40 µM	O=C(O)c1cc(O)c(O)c(=O)c(O)c1 [puberulic acid, 3,4,6-trihydroxy-5-oxo-1,3,6-cycloheptatriene-1-carboxylic acid]	–	–	–	–	–	–

Molecule	IC50 [1]	inhibition of inositol monophosphatase activity (inositol monophosphatase)	structural lesions in kidney ([2]; after chronic lithium treatment, especially in patients who have experienced lithium toxicity)	adverse effects common to lithium therapy ([2]; lithium therapy)	occurrence of polyuria-polydipsia syndrome ([2]; lithium treatment)	time it takes to exert anti-manic effect (bipolar disorder / mania; acute bipolar disorder)	anti-manic and anti-depressive therapeutic effect (bipolar disorder / mania; preferably employed as lithium carbonate)
lithium	~1250 µM	inhibits the activity of said enzyme	interstitial fibrosis, tubular atrophy and glomerular sclerosis	tremor, weight gain, diarrhea and skin rash; also recorded: transient leukocytosis; also recorded: can cause patients with a borderline thyroid reserve to become clinically hypothyroid; also recorded: can decompensate cardiac status due to shifts in fluids and electrolytes	up to 60 % of treated patients	7 to 10 days	alleviating manic symptoms, normalizing the mood of manic patients
